pEC50: −log10 of the molar value.
Tests used:
[1] = target: FPR2 (Homo sapiens (Human), UniProt P25090); assay: Agonistic activity (calcium FLIPR) in hFPR2-Aq-CHO cells; type: cell-based; conditions: FLIPR Calcium 5 dye fluorescence, agonistic response
Method: (§1) Cells (hFPR1-Gα15-CHO or hFPR2-Aq-CHO) are suspended in 10 mL of respective complete medium (F12(1×) HAM media; 10% HI-FBS; 0.1 mg/ml Hygromycin B and 0.2 mg/ml Zeocin [for hFPR1 only]; 0.4 mg/mL Geneticin and 0.25 mg/ml Zeocin [for hFPR2-Aq only]) and viability is checked using Trypan Blue exclusion. After washing, the cells are plated at 10,000 cells per well in 40 μL complete medium in a 384-well sterile clear bottom black plate and incubated in a 5% CO2 incubator at 37° C. for 18 hours. Plating media is removed from each well by decanting and gentle tapping before 30 μL of 0.5× Calcium 5 dye solution (0.5×FLIPR Calcium 5 dye (Molecular devices, R8186)); HBSS; 20 mM HEPES; 2.5 mM Probenecid; 0.025% Pluronic F-127; pH adjusted to 7.4) is added to each well and the plate is then incubated at 37° C. for 30 minutes. For the assay the plate is equilibrated at room temperature for 10 minutes before placing it in the FLIPR. Compounds are dissolved in DMSO and serially diluted over an 11 point half log (3.16 fold) dilution (2 mM to 20 nM). Compounds are then diluted 1:50 in assay buffer (HBSS; 20 mM HEPES; 2.5 mM Probenecid; 0.05% gelatin; 0.1% BSA; pH adjusted to 7.4) just before performing the assay. Compounds are finally added to the respective wells of the cell plate (final assay concentration 10 μM to 100 pM) using the FLIPR (e.g. FLIPR-Tetra, Molecular Devices) and fluorescence readings are captured for 5 minutes. The increase in fluorescence from the basal reading in the presence of the compounds is compared with that of the control wells (wells having no compound) to calculate the activity of the compounds. The EC50 values of the compounds can be determined using e.g. Graph pad Prism software.
(§2) Assay Method for Measuring Agonistic Activity of Compounds in hFPR1-Gα15-CHO and hFPR2-Aq-CHO Cell
(§3) Cryo-vial containing 6×10^6 cells (hFPR1-Gα15-CHO or hFPR2-Aq-CHO) was thawed in a 37° C. water bath. Cells were suspended in 10 ml of respective complete growth media (F12(1×) HAM media (Gibco; Cat#11765); 10% HI-FBS (Gibco; Cat#10082); 0.1 mg/ml Hygromycin B (Invitrogen; Cat#10687-010) [for hFPR1 only]; 0.2 mg/ml Zeocin (Invitrogen; Cat#R25001) [for hFPR1 only]; 0.4 mg/ml Geneticin (Gibco; Cat#10131) [for hFPR2-Aq only]; 0.25 mg/ml Zeocin (Invitrogen; Cat#R25001) [for hFPR2-Aq only]) in a 15 ml centrifuge tube. The cell viability was checked with the help of Trypan Blue dye. Upon washing the cells, those were plated in a 384-well sterile clear bottom black plate (Greiner Bioone Cat#781091) so that, each well contained 10,000 cells in 40 μl complete growth media. The plate was incubated in a 5% CO2 incubator at 37° C. for 18 hours.
(§4) Before assay on the next day, the cell plating media was removed from each well of the plate by decanting and gentle tapping. 30 μl, 0.11 of 0.5× Calcium 5 dye solution (0.5×FLIPR Calcium 5 dye (Molecular devices Cat# R8186); HBSS (Invitrogen; Cat#14025); 20 mM HEPES (Sigma; Cat#H0887); 2.5 mM Probenecid (Sigma; Cat#P8761); 0.025% Pluronic F-127 (Sigma; Cat#P2443); pH adjusted to 7.4) was added to each well. The plate was then incubated at 37° C. for 30 minutes. Following which the plate was equilibrated at room temperature for 10 minutes before placing it in a 384 well FLIPR for assay. Compounds were dissolved in DMSO and serially diluted following 11 point half log (3.16 fold) dilution with a starting concentration of 2 mM (Final assay concentration 10 μM). Aliquots of above mentioned each dilution was mixed with assay buffer (HBSS (Invitrogen; Cat#14025); 20 mM HEPES (Sigma; Cat#H0887); 2.5 mM Probenecid (Sigma; Cat#P8761); 0.05% gelatin (Sigma; Cat#G1890); 0.1% BSA (Sigma; Cat#A3059); pH adjusted to 7.4) just before performing the assay. Compounds were added to the respective wells of the assay ready cell plate with the help of the FLIPR (FLIPR Tetra) and fluorescence readings were captured for 5 minutes to measure any agonistic response of the compounds. […]

[2] = target: FPR1 (Homo sapiens (Human), UniProt P21462); assay: Agonistic activity (calcium FLIPR) in hFPR1-Gα15-CHO cells; type: cell-based; conditions: FLIPR Calcium 5 dye fluorescence, agonistic response
Sequence of FPR1 (P21462 whole entry): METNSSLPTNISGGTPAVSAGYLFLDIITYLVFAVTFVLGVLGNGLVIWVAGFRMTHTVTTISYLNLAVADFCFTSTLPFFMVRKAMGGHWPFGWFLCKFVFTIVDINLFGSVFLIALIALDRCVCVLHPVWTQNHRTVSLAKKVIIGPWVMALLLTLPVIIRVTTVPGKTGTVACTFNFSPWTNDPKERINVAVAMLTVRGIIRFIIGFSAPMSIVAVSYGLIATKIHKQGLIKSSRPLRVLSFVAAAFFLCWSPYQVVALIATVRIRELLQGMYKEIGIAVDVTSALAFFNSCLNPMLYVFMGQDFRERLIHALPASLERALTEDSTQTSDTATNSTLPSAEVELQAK
Method: as §1, §2, §3, §4

Sequence of FPR2 (P25090 whole entry): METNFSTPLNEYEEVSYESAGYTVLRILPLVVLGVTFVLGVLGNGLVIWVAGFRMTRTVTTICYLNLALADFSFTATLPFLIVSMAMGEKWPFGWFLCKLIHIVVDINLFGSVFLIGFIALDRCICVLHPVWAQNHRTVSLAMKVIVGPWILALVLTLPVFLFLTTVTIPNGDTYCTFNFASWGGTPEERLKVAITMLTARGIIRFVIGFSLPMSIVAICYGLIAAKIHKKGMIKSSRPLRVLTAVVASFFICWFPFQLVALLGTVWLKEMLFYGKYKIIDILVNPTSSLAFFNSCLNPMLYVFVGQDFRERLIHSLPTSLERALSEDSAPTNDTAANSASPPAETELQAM

| Compound | pEC50 [1] | pEC50 [2] |
| --- | --- | --- |
| COc1ccc([C@@H]2CCN(C(C)=O)C[C@H]2NC(=O)Nc2ccc(C(F)(F)F)nc2)cc1 (racemic) [Example 27, rac-trans-1-(1-acetyl-4-(4-methoxyphenyl)piperidin-3-yl)-3-(6-(trifluoromethyl)pyridin-3-yl)urea] | 6.00 to 9.00 | 6.00 to 9.00 |
| COc1ccc(C2CCN(C(C)=O)C[C@H]2NC(=O)Nc2ccc(C)nc2)cc1 (mixture of isomers) [Example 28, rac-trans-1-(1-acetyl-4-(4-methoxyphenyl)piperidin-3-yl)-3-(6-methylpyridin-3-yl)urea] | 6.00 to 9.00 | 6.00 to 9.00 |
| COc1cc(F)c([C@@H]2CC(=O)N(CC3CC3)C[C@H]2NC(=O)Nc2ccc(Cl)cc2)c(F)c1 (racemic) [Example 29, rac-trans-1-(4-chlorophenyl)-3-(1-(cyclopropylmethyl)-4-(2,6-difluoro-4-methoxyphenyl)-6-oxopiperidin-3-yl)urea] | > 9.00 | 6.00 to 9.00 |
| COc1ccc([C@@H]2CCN(C(=O)CCO)C[C@H]2NC(=O)Nc2ccc(Cl)cc2)cc1 (racemic) [Example 30, rac-trans-1-(4-chlorophenyl)-3-(1-(3-hydroxypropanoyl)-4-(4-methoxyphenyl)piperidin-3-yl)urea] | > 9.00 | > 9.00 |
| COc1cc(F)c([C@@H]2CC(=O)N(CCO)C[C@H]2NC(=O)Nc2ccc(Cl)cc2)c(F)c1 (racemic) [Example 31, rac-trans-1-(4-chlorophenyl)-3-(4-(2,6-difluoro-4-methoxyphenyl)-1-(2-hydroxyethyl)-6-oxopiperidin-3-yl)urea] | > 9.00 | 6.00 to 9.00 |
| COc1ccc([C@@H]2CC(=O)N(CCO)C[C@H]2NC(=O)Nc2ccc(Cl)cc2)cc1 (racemic) [Example 32, rac-trans-1-(4-chlorophenyl)-3-(1-(2-hydroxyethyl)-4-(4-methoxyphenyl)-6-oxopiperidin-3-yl)urea] | > 9.00 | 6.00 to 9.00 |
| COc1cc(F)c([C@@H]2CC(=O)NC[C@H]2NC(=O)Nc2ccc(Cl)s2)c(F)c1 (racemic) [Example 51, rac-trans-1-(5-chlorothiophen-2-yl)-3-(4-(2,6-difluoro-4-methoxyphenyl)-6-oxopiperidin-3-yl)urea] | 6.00 to 9.00 | 6.00 to 9.00 |
| COc1cc(F)c([C@@H]2CC(=O)NC[C@H]2NC(=O)Nc2csc(Cl)c2)c(F)c1 (racemic) [Example 52, rac-trans-1-(5-Chloro-thiophen-3-yl)-3-[4-(2,6-difluoro-4-methoxy-phenyl)-6-oxo-piperidin-3-yl]-urea] | > 9.00 | 6.00 to 9.00 |
| COc1cc(F)c([C@@H]2CC(=O)NC[C@H]2NC(=O)Nc2cc3ccccc3s2)c(F)c1 (racemic) [Example 53, rac-trans-1-(Benzo[b]thiophen-2-yl)-3-[4-(2,6-difluoro-4-methoxy-phenyl)-6-oxo-piperidin-3-yl]-urea] | 6.00 to 9.00 | 6.00 to 9.00 |
| COc1cc(F)c([C@@H]2CC(=O)NC[C@H]2NC(=O)Nc2ccc(Oc3ccccc3)cc2)c(F)c1 (racemic) [Example 54, rac-trans-1-[4-(2,6-Difluoro-4-methoxy-phenyl)-6-oxo-piperidin-3-yl]-3-(4-phenoxy-phenyl)-urea] | > 9.00 | 6.00 to 9.00 |
| COc1cc(F)c([C@@H]2CC(=O)NC[C@H]2NC(=O)Nc2cc(C)ns2)c(F)c1 (racemic) [Example 55, rac-trans-1-[4-(2,6-Difluoro-4-methoxy-phenyl)-6-oxo-piperidin-3-yl]-3-(3-methyl-isothiazol-5-yl)-urea] | 6.00 to 9.00 | 6.00 to 9.00 |
| COc1cc(F)c([C@@H]2CC(=O)NC[C@H]2NC(=O)Nc2ncc(Cl)s2)c(F)c1 (racemic) [Example 56, rac-trans-1-(5-Chloro-thiazol-2-yl)-3-[4-(2,6-difluoro-4-methoxy-phenyl)-6-oxo-piperidin-3-yl]-urea] | 6.00 to 9.00 | 6.00 to 9.00 |
